These results are taken from US20240199571A1, “THIOPHENE COMPOUND AND APPLICATION THEREOF” (MEDSHINE DISCOVERY INC., priority 2021, published 2024).

One data set concerns the target human LSD1 (Homo sapiens (Human), UniProt O60341). The data set is described as follows: Experiment 1B: in vitro LSD1 enzyme activity, enzyme-coupled fluorescence (HRP/Amplex Red), H3(1-21)K4me2 peptide 10 μM (Reaction Biology). It is filed as biochemical. The settings on record: histone H3(1-21)K4me2 peptide 10 μM. In short, it runs like this: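 Human LSD1 with 10 μM histone H3(1-21)K4me2 peptide; enzyme and substrate incubated 30 min before compound addition started the reaction. H2O2 detected via HRP/Amplex Red fluorescence (Ex/Em 535/590). IC50 from 10-point 3-fold dilutions starting at 10 μM.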

The test system of a further data set is NCI-H1417 cells. The experiment in a line: Experiment 2: inhibition of NCI-H1417 cell proliferation (CellTiter-Glo, 10 days). It counts as cell-based. The settings on record: Homo sapiens, 240 h, 10 days incubation. In short, it runs like this: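 Cells at 1000 per well exposed to 10-point 3-fold dilutions from 10 μM top concentration for 10 days. Viability by CellTiter-Glo luminescence; inhibition normalized to max/min controls, IC50 from four-parameter fit.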
(In ATP-based viability assays light output follows the ATP content of the culture.)

A short description of data set [1]: Experiment 3: pharmacokinetic evaluation in CD-1 mice (IV and oral). As to conditions: mouse, plasma; for clearance / half-life / Vd: IV 1 mg/kg; for clearance: read-out: Clearance rate CL; for half-life: read-out: Half life T1/2 (IV, h) (converted); for Vd: read-out: Volume of distribution at steady state Vdss; for bioavailability: PO 2 mg/kg vs IV 1 mg/kg, read-out: Bioavailability F (%); for AUC(0-t): PO 2 mg/kg, read-out: Area under drug-time curve AUC0-last PO; for Cmax: single dose, oral 2 mg/kg, read-out: Peak concentration Cmax. It is filed as in vivo. As for the experimental part:
Experiment 3: Pharmacokinetic Evaluation of Compounds
Experimental purpose: To test the pharmacokinetics of compounds in CD-1 mice in vivo
CD-1 mice (male/female, 7 to 9 weeks old, Shanghai SLAC)
The pharmacokinetic characteristics of the compounds in rodents after intravenous injection and oral administration were tested according to the standard protocol. In the experiment, the candidate compound was formulated into clear solutions, and a single intravenous injection and oral administration were given to mice. The vehicle for intravenous injection and oral administration was a mixed vehicle composed of 10% dimethyl sulfoxide and 90% hydroxypropyl β-cyclodextrin with a content of 10%. In this project, four male/female CD-1 mice were used. Two mice were injected intravenously at a dose of 1 mg/kg, and plasma samples were collected at 0.083, 0.25, 0.5, 1, 2, 4, 8, and 24 hours after administration; the other two were administered orally by gavage at a dose of 2 mg/kg, and plasma samples were collected at 0.25, 0.5, 1, 2, 4, 8, and 24 hours after administration. The samples were centrifuged at 3200 g for 10 minutes at 4° C., and plasma samples were obtained by separating the supernatant. A methanol solution containing internal standard with 20 times the volume of the sample was added thereto to precipitate the protein, and the mixture was centrifuged at 12000 g for 15 minutes at 4° C. 50 μL of the supernatant was taken and transferred to a 96-well plate and centrifuged again. The supernatant was taken for sampling. The plasma concentration was quantitatively analyzed using LC-MS/MS analysis method, and pharmacokinetic parameters, such as peak concentration (Cmax), clearance rate (CL), half-life (T1/2), volume of distribution at steady state (Vdss), area under drug-time curve (AUC0-last), bioavailability (F).

The target of data set [2] is hERG potassium ion channels (Homo sapiens (Human), UniProt Q12809). The experiment in a line: Experiment 4: hERG potassium ion channel inhibition, automated patch clamp (Qpatch), CHO-hERG cells. The settings on record: highest test concentration 40 μM. It counts as cell-based. As for the experimental part:
Experiment 4: hERG Potassium Ion Channel Inhibition Assay
Experimental purpose: To test the effects of the test examples on hERG potassium ion channels using an automated patch clamp method.
4.1.1 CHO-hERG cells were cultured in a 175 cm^2 culture flask. When the cell density grew from 60% to 80%, the culture medium was removed. The cells were washed once with 7 mL of PBS (Phosphate Buffered Saline), and then 3 mL of Detachin cell dissociation reagent was added thereto for digestion.
4.1.2 After the digestion was completed, 7 mL of culture medium was added thereto for neutralization, then the mixture was centrifuged, the supernatant was aspirated, and then 5 mL of culture medium was added thereto for resuspension to ensure a cell density of 2×10^6/mL to 5×10^6/ML.
The single-cell high-resistance sealing and whole-cell modeling formation processes were all automatically completed by the Qpatch instrument of the Shanghai Institute of Materia Medica, Chinese Academy of Sciences. After obtaining the whole-cell recording modeling, the cells were clamped at −80 mV, and before a 5-second +40 mV depolarizing stimulus was given, a 50-millisecond −50 mV prepulse was first given, then the voltage was repolarized to −50 mV and holden for 5 seconds, and finally returned to −80 mV. This voltage stimulus was applied every 15 seconds, recorded for 2 minutes, and then the extracellular fluid was recorded for 5 minutes, and then the administration process was initiated, with compound concentrations starting at the lowest test concentration. The voltage stimulus was given for 2.5 minutes for each test concentration, and after all concentrations had been continuously given, 3 μM the positive control compound, Cisapride, was given. At least 3 cells were tested per concentration (n≥3).
4.4.1 The compound stock solution was diluted with DMSO, and 20 μL of DMSO solution was added with 10 μL of the compound stock solution, and serially diluted 3-fold to 6 DMSO concentrations.
4.4.2 4 μL of 6 DMSO concentrations of compounds were taken respectively and added to 396 μL of extracellular fluid, and the mixture was diluted 100-fold to 6 intermediate concentrations, then 80 μL of 6 intermediate concentrations of compounds was taken and added to 320 μL of extracellular fluid, and the mixture was diluted 5-fold to the final test concentration.
4.4.3 The highest test concentration was 40 μM, and the concentrations were respectively 40, 13.3, 4.4, 1.48, 0.494, and 0.165 μM for a total of six concentrations.
4.4.5 The preparation of the compound was completed by the Bravo instrument throughout the dilution process.
Experimental data were analyzed by GraphPad Prism 5.0 software.

Data set [3] has as its system human small cell lung cancer NCI-H1417 cell subcutaneous xenograft tumor. The data set is described as follows: Experiment 5: in vivo pharmacodynamic study, NCI-H1417 subcutaneous xenograft tumor in CB17-SCID mice. The settings on record: 10 mg/kg, p.o.; for Mean tumor volume ± SEM (mm^3) (Day 28): day 28 after administration; for TGI (%): tumor volume at day 28. From the text:
Experiment 5: In Vivo Pharmacodynamic Study of Compounds on CB17-SCID Mouse Model of Human Small Cell Lung Cancer NCI-H1417 Cell Subcutaneous Xenograft Tumor
The purpose of this experiment was to evaluate the in vivo efficacy of the compounds of the present disclosure on CB17-SCID mouse model of human small cell lung cancer NCI-H1417 cell subcutaneous xenograft tumor.
5.2 Experimental Animals: • Species: mice • Strain: CB17-SCID mice • Week age and weight: 6-8 weeks old, 18 to 22 grams • Gender: Female • Supplier: Beijing Vital River Laboratory Animal Technology Co., Ltd.
Human lung cancer cells NCI-H1417 were cultured in vitro in suspension in RPMI 1640 medium with 10% fetal bovine serum, 100 U/mL penicillin, and 100 μg/mL streptomycin at 37° C. in a 5% CO2 cell culture incubator. Routine digestion and passage treatment were performed twice a week. When the number of cells reached the required number, the cells were counted and resuspended in PBS at a density of 10×10^6 cells/200 μL.
0.2 mL of NCI-H1417 tumor cells (containing 10×10^6 cells) suspension (PBS: matrix gel=1:1) was subcutaneously inoculated on the right back of mice, and in pharmacodynamic experiments, on the 16th day after cell inoculation, when the average tumor volume reached 86 mm^3, the subjects were randomly grouped and the administration started.
The experimental vehicle was 5% dimethyl sulfoxide/95% (10% Solutol) solution. Preparation method: 3.8 mL of […] was taken and added to 34.2 mL of double-distilled water, 2 mL of dimethyl sulfoxide was added thereto, and the mixture was mixed well. The test substance was dissolved with the vehicle, prepared as a homogeneous solution of a certain concentration, and stored at 4° C.
The experimental indicator was to examine whether tumor growth was inhibited, delayed, or cured. The tumor diameter was measured twice a week using vernier calipers. The calculation formula of tumor volume is V=0.5a×b^2, wherein a and b represent the long and short diameters of the tumor respectively.
The tumor inhibitory efficacy of compounds was evaluated by TGI (%). TGI (%) reflects the tumor growth inhibition rate. Calculation of TGI (%): TGI (%)=[1−(Average tumor volume at the end of administration in a certain treatment group−Average tumor volume at the beginning of administration in this treatment group)/(Average tumor volume at the end of treatment in the vehicle control group−Average tumor volume at the beginning of treatment in the vehicle control group)]×100%.

Where a name gives a salt, the structure may show the parent alone. Read-outs that look alike come from different tables or passages of the source.

hERG potassium ion channels, sequence (Q12809 whole entry): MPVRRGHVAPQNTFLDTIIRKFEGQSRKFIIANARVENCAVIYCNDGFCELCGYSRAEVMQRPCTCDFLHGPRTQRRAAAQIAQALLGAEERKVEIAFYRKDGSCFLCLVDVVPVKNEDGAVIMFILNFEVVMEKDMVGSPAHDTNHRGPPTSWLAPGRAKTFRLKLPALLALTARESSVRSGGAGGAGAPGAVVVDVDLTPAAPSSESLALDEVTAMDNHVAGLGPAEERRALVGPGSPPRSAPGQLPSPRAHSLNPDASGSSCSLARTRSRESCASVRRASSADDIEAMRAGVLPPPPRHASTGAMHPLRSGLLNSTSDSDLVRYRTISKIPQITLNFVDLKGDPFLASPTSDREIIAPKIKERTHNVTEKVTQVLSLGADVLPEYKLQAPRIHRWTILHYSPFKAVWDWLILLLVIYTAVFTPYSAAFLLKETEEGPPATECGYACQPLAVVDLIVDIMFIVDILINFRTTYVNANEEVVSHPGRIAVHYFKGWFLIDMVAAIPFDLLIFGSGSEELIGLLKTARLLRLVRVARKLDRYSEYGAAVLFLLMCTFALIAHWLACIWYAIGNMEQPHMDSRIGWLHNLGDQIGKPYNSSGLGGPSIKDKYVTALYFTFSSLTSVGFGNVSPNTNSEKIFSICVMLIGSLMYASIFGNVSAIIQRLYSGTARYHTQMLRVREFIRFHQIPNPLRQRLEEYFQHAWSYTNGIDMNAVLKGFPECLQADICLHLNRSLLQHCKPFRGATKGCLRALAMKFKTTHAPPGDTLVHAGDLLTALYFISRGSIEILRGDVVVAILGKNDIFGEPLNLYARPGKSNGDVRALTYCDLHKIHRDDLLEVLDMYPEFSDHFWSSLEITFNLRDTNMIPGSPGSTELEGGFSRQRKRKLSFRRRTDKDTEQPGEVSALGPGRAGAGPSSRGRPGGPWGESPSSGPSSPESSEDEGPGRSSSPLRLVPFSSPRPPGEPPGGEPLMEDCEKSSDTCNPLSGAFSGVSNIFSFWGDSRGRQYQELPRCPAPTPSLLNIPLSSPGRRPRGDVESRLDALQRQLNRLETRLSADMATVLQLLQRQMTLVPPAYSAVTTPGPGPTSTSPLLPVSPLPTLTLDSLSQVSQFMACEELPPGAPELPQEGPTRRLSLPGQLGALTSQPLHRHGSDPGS

One may read the IC50 as the point on the concentration scale where inhibition reaches its midpoint. A low value points to inhibition by little substance. One may read the bioavailability as dose-corrected exposure relative to a reference, in per cent. Take `CC(C)(CO)n1nnc2cc(-c3sc(C(=O)N4CCC[C@@H](N)C4)cc3-c3ccc(C#N)c(F)c3)c(F)c(F)c21` [Hydrochloride of compound 99]: half-maximal inhibition on human LSD1 (IC50) was put at 0.0174 µM. Inhibition with NCI-H1417 cells was half-maximal at 0.00426 µM (IC50). Also, in data set [1] (male CD-1 mice), the clearance came out at 2.52 L/h/kg, the half-life was 2.48 h, the Vd was determined as 7.23 L/kg and the bioavailability came to 47.7%. In addition, in data set [1] (male CD-1 mice), the AUC(0-t) was 625 nM·h and the Cmax was determined as 0.145 µM. The compound further gave an IC50 in data set [2] of 27 µM.

`CN[C@@H]1CCCN(C(=O)c2cc(-c3ccc(C#N)c(F)c3)c(-c3ccc4c(c3)nnn4CC(C)(C)O)s2)C1` [Hydrochloride of compound 121]: the figures for the IC50 (against human LSD1; with NCI-H1417 cells; in data set [2]) were 0.0143 µM, 0.0077 µM and 20.5 µM, respectively. The “Mean tumor volume ± SEM (mm^3) (Day 28)” value in data set [3] (QD) is listed as 75 ± 4 mm^3. Moreover, in data set [3] (QD), the “TGI (%)” value is given as 103.19%.

With `Cn1cc2cc(-c3sc(C(=O)N4CCC[C@@H](N)C4)cc3-c3ccc(C#N)c(F)c3)ccc2n1` [Hydrochloride of compound 36], the concentration for half-maximal inhibition (IC50) against human LSD1 was determined as 0.00344 µM. The half-inhibitory concentration (IC50) in the data set with NCI-H1417 cells came to 0.00117 µM. In data set [1] (female CD-1 mice), the clearance came to 2.24 L/h/kg, the half-life was 2.01 h, the Vd amounted to 4.71 L/kg and the bioavailability stood at 49.6%. Further, in data set [1] (female CD-1 mice), the AUC(0-t) is 971 nM·h and the Cmax stood at 0.224 µM. Moreover, in data set [1] (male CD-1 mice), the clearance was determined as 1.89 L/h/kg, the half-life is 2.1 h, the Vd came out at 4.47 L/kg and the bioavailability amounted to 33.9%. In addition, in data set [1] (male CD-1 mice), the AUC(0-t) worked out at 742 nM·h and the Cmax was found to be 0.148 µM. Also, in data set [3] (BID), the “Mean tumor volume ± SEM (mm^3) (Day 28)” value stood at 53 ± 3 mm^3 and the “TGI (%)” value turned out to be 109.13%. In data set [3] (QD), the “Mean tumor volume ± SEM (mm^3) (Day 28)” value was 87 ± 11 mm^3 and the “TGI (%)” value came to 99.65%.

Regarding `CC(C)(O)Cn1nnc2cc(-c3sc(C(=O)N4CCCNCC4)cc3-c3ccc(C#N)c(F)c3)c(F)c(F)c21` [Hydrochloride of compound 111], the IC50 is 0.0176 µM against human LSD1, 0.00212 µM in the data set with NCI-H1417 cells and 21.5 µM in data set [2].

Take `CC(C)(O)CN1Cc2cc(-c3sc(C(=O)N4CCC[C@@H](N)C4)cc3-c3ccc(C#N)c(F)c3)ccc2C1=O` [Compound 59]: the results for the IC50 (against human LSD1; with NCI-H1417 cells; in data set [2]) were 0.0431 µM, 0.0132 µM and more than 40 µM, respectively.

As to `CC(C)(O)Cn1nnc2cc(-c3sc(C(=O)N4C5CCC4C(N)C5)cc3-c3ccc(C#N)c(F)c3)ccc21` (centres unmarked) [Hydrochloride of compound 16], the figures for the IC50 (on human LSD1; with NCI-H1417 cells; in data set [2]) were 0.00751 µM, 0.00017 µM and more than 40 µM, respectively.

`N#Cc1ccc(-c2cc(C(=O)N3CCC[C@@H](N)C3)sc2-c2ccc3c(c2)nnn3[C@H]2COCC[C@@H]2O)cc1F` [Hydrochloride of compound 90]: the IC50 is 0.0373 µM against human LSD1, 0.0376 µM in the data set on NCI-H1417 cells and more than 40 µM in data set [2].

Take `N#Cc1ccc(-c2cc(C(=O)N3CCC[C@@H](N)C3)sc2-c2cc3cn([C@H]4COCC[C@@H]4O)nc3cc2F)cc1F` [Hydrochloride of compound 94]: the IC50 against human LSD1 is 0.0984 µM; in the data set on NCI-H1417 cells, 0.0328 µM; in data set [2], more than 40 µM.

With `CC(C)(O)Cn1nnc2cc(-c3sc(C(=O)N4CCC[C@@H](N)C4)cc3-c3ccc(C#N)c(F)c3)c(F)c(F)c21` [Hydrochloride of compound 91], the IC50 on human LSD1 was 0.013 µM; in the data set with NCI-H1417 cells it was 0.00083 µM; in data set [2] it was more than 40 µM.

Take `N#Cc1ccc(-c2cc(C(=O)N3CCC[C@@H](N)C3)sc2-c2ccc3nn([C@H]4COCC[C@@H]4O)cc3c2)cc1F` [Hydrochloride of compound 88]: the values for the IC50 (against human LSD1; in the data set with NCI-H1417 cells; in data set [2]) were 0.0876 µM, 0.0394 µM and 21.9 µM, respectively.
